Experimental data: patent US20240350430A1, “GROWTH INHIBITOR OF METASTATIC HUMAN PROSTATE CANCER CELLS” (Watanabe Oyster Laboratory Co., Ltd., priority 2021, published 2024)

Legend:
Format in all cases: cell-based, human
DU-145 cells [1] = experiment: Cell growth of DU-145 cells (cell counting); conditions: DHMBA 10 μM, one to six days
Protocol: The PC-3 and DU-145 cells (the cell number of 1×10^5/in 1 ml of a culture fluid per hole using a 24-hole plate) were cultured in a DMEM culture fluid (containing 10% of FBS, 1% of P/S, and 1% of fungizone) containing the DHMBA (1 and 10 μM) under 5% of CO2, at 37° C., for one, two, three, four, and six days. […] After the culture, 0.1 ml of 0.05% trypsin-EDTA solution obtained by dissolving the cells adhering to the bottom surface of the culture dish in PBS (Thermo Fisher Scientific, Waltham, MA, USA) not containing Ca^2+/Mg^2+ was added, incubation was performed at 37° C. for two minutes to release the adhering cells, and 0.9 ml of the DMEM culture fluid containing 10% of FBS and 1% of P/S was added to stop the reaction. The cell number in the cell suspension was counted by the method described in the item of “Measurement of Cell Number.”
After the culture of the cells, 0.1 ml of 0.05% trypsin-EDTA solution obtained by dissolving the cells adhering to the bottom surface of the culture dish in PBS (Thermo Fisher Scientific, Waltham, MA, USA) not containing Ca^2+/Mg^2+ was added, incubation was performed at 37° C. for two minutes to release the adhering cells, and 0.9 ml of the DMEM culture fluid containing 10% of FBS and 1% of P/S was added to stop the reaction. The visible cells were counted by the Olympus MTV-3 microscope using a hemocytometer (Sigma-Aldrich).
FIG. 2(C) is a diagram in which the DU-145 cells (1×10^5 cells/per well of a 24-well plate) were cultured under 5% of CO2, at 37° C., for one to six days in a DMEM culture fluid (containing 10% of FBS, 1% of P/S, and 1% of fungizone) containing the DHMBA (10 μM).
In FIGS. 2(D) and 2(E), the DU-145 cells (1×10^5 cells/per well of a 24-well plate) were cultured under 5% of CO2, at 37° C., for three (FIG. 2D) and six (FIG. 2E) days in a DMEM culture fluid (containing 10% of FBS, 1% of P/S, and 1% of fungizone) containing the DHMBA (0.01, 0.1, 1, 10, 100, and 1000 μM). After the culture, the cells adhered to the dish were removed and counted. […] 1-way ANOVA, Tukey-Kramer post-test.

DU-145 cells [2] = experiment: Colony formation of DU-145 cells; conditions: DHMBA 1 or 10 μM, nine days
Protocol: The PC-3 and DU-145 cells (1×10^3/in 2 ml of a culture fluid per hole using a six-hole plate) were cultured in a DMEM culture fluid (containing 10% of FBS, 1% of P/S, and 1% of fungizone) containing the DHMBA (1 and 10 μM) under 5% of CO2, at 37° C., for nine days. After the culture, the culture fluid was removed, the cells were washed twice with PBS, 95% of methanol (0.5 ml) was added, and the cells were fixed for 20 minutes. After the fixation, each well of a culture dish was washed four times with PBS (1 ml), and after that 0.5% of crystal violet (0.5 ml) was added, and the product was left for two hours at room temperature for staining. After the stain solution was washed to be removed, drying was performed, and after that colonies containing 50 or more cells were counted by a microscope (Olympus MTV-3, Olympus Corporation, Tokyo, Japan).
FIG. 2(A) is a drawing in which the DU-145 cells (1×10^3 cells/per well of a six-well plate) were cultured under 5% of CO2, at 37° C., for nine days in a DMEM culture fluid (containing 10% of FBS, 1% of P/S, and 1% of fungizone) containing the DHMBA (1 or 10 μM).
FIG. 2(B) is a diagram of counting the number of colonies.

PC-3 cells = experiment: Cell migration scratch assay, PC-3 cells; conditions: DHMBA 1, 10, 100, or 1000 μM, 48 hours
Protocol: The migration of the prostate cancer PC-3 and DU-145 cells was examined using a scratch assay. The PC-3 and DU-145 cells (the cell number of 2×10^5/in 1 ml of a culture fluid per hole using a 24-hole plate) were cultured in a DMEM culture fluid containing 10% of FBS, 1% of P/S, and 1% of fungizone under 5% of CO2, at 37° C., for 48 hours, and a straight line scratch was performed using a pipette tip (200 μl) when the cells reached confluence. Free cells were washed with PBS to be removed, the above-described culture fluid (containing 0.1, 1, 10, 100, or 1000 μM of the DHMBA) was added, and the cells were cultured for 48 hours. After the culture, intervals of cell-free parts were measured.
The PC-3 and DU-145 cells (the cell number of 2× 10^5/1 ml of a culture fluid per hole using a 24-hole plate) were cultured under 5% of CO2, at 37° C., for 48 hours in a DMEM culture fluid containing 10% of FBS, 1% of P/S, and 1% of fungizone, and a straight line scratch was performed using a pipette tip (200 μl) when the cells reached confluence. Free cells were washed with PBS to be removed, the above-described culture fluid (containing 0.1, 1, 10, 100, or 1000 μM of the DHMBA) was added, and the cells were cultured for 48 hours. After the culture, intervals of cell-free parts were measured. […]

Compound: COc1c(O)cc(CO)cc1O [DHMBA, 3,5-dihydroxy-4-methoxybenzyl alcohol]
- cell growth (DU-145 cells [1]): inhibited
- colony formation (DU-145 cells [2]): significantly inhibited
- migration (PC-3 cells): significantly inhibited
